Laboratory results from PMC9033217, “Synthesis, characterization and biological evaluation of dipicolylamine sulfonamide derivatized platinum complexes as potential anticancer agents” (RSC Advances, 2021).

Tests used:
[1] = tested on: normal human breast cells (MCF-10A); assay: Antiproliferative activity / cytotoxicity by sulforhodamine B assay in MCF-10A cells; format: cell-based; conditions: MCF-10A normal human breast cells, 24 hours exposure, triplicate
Procedure: (§1) The ligands and corresponding metal complexes were investigated for their cytotoxicity against MCF-7 (breast cancer) cells and MCF-10A (normal human breast) cells. Cells were cultured in 96-well culture plates and exposed to 12.5 μg ml^−1, 25 μg ml^−1, 50 μg ml^−1 and 100 μg ml^−1 concentrations of ligands and complexes for 24 hours and cytotoxicity was assessed by sulforhodamine B assay. All exposures were carried out in triplicate. Briefly, the cell supernatant was completely removed and washed with phosphate buffer solution. Trichloroacetic acid (50%, […]) was added on top of fetal bovine serum-free fresh medium (200 μl) to make final concentration of 10% trichloroacetic acid and was incubated at 4 °C for one hour prior to the SRB assay. The plates were then washed with five washing cycles with water and dried completely. An aliquot of 100 μl of 0.4% sulforhodamine B dissolved in 1% trichloroacetic acid, was added to each well, and was allowed to stain for 15 minutes. The plates were again washed with five washing cycles to remove unbound dye using 1% (vol/vol) acetic acid after removing the stain. The protein bound dye was solubilized with trisbase (10 mM, pH 7.5, 200 μl), after air drying. The plates were then shaken for 60 minutes to homogenize the dye solution. The absorbance was then measured at 540 nm using Synergy HTBioTek microplate reader. The percentage viability was calculated by the equation given below.1 [drawing 1]
(§2) Three ligands and three novel complexes were assayed for their antiproliferative activity in human breast cancer cells (MCF-7) and normal human breast cells (MCF-10A). In this study, the cell lines were exposed to synthesized compounds in a concentration gradient up to […] and the half maximal inhibitory concentration (IC50) was determined for each compound. Cytotoxicity was measured with sulforhodamine B assay.

[2] = tested on: human breast cancer cells (MCF-7); assay: Antiproliferative activity / cytotoxicity by sulforhodamine B assay in MCF-7 cells; format: cell-based; conditions: for IC50: MCF7, MCF-7 human breast cancer cells, 24 hours exposure, sulforhodamine B assay, triplicate
Procedure: as §1, §2

In the case of `O=S(=O)(c1cccc2ccccc12)N(Cc1ccccn1)Cc1ccccn1` [N(SO2(1-nap))dpa], the IC50 [1] is reported as 1583 ± 0.04 µM, the “shape of cytotoxicity curve” value ([2]; Fig. S3, IC50 graphs against MCF-7) is reported as “biphasic cytotoxicity curve” and the IC50 [2] is reported as 92 ± 0.06 µM.
For `O=S(=O)(c1ccc2ccccc2c1)N(Cc1ccccn1)Cc1ccccn1` [N(SO2(2-nap))dpa], the IC50 [1] was 581 ± 0.04 µM and the IC50 [2] was 18.1 ± 0.1 µM.
With `O=S(=O)(N1CCCCC1)N(Cc1ccccn1)Cc1ccccn1` [N(SO2pip)dpa] the IC50 [1] was 948.5 ± 0.04 µM and the IC50 [2] was 21.2 ± 0.1 µM.
